Test results reported in patent US12421253B2 (Mirati Therapeutics, Inc., priority 2020, dated 2025).

Columns and labels:
[1] = molecular target: T1, KRas^G12D (Homo sapiens, UniProt P01116, G12D); test: KRas binding assay (TR-FRET displacement of Cy5 labelled tracer)
T1 construct: […]; biotin (biotinylated); purchased Accelegan Inc

[2] = molecular target: T2, KRas^G12R (Homo sapiens, UniProt P01116, G12R); test: as above
T2 construct: […]; biotin (biotinylated); purchased Accelegan Inc

[3] = molecular target: T3, KRas^G12V (Homo sapiens, UniProt P01116, G12V); test: as above
T3 construct: […]; biotin (biotinylated); purchased Accelegan Inc

[4] = system: A549 cells, pERK; test: Inhibition of KRas phosphorylation of ERK (Cisbio HTRF Advanced pERK assay); assay type: cell-based; settings: Homo sapiens, 3 hrs, read-out: Inhibition (HTRF IC50 nM) of KRas-mediated Phosphorylation of ERK, A549
How it was run: (§1)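 Overnight-plated cells (RPMI, 10% FBS); compound 3 h, 37 °C, 10 uM top, 3-fold x10, 0.8% DMSO; min ctrl trametinib 0.2 uM; lysis 40 min 4 °C; pERK by HTRF, 2 h RT.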

[5] = system: ASPC1 cells, pERK; test: as above; assay type: cell-based; settings: Homo sapiens, ASPC1, 3 h, AsPC-1 cells, read-out: Inhibition (HTRF IC50 nM) of KRas-mediated Phosphorylation of ERK, AsPC-1
How it was run: as §1

[6] = system: H460 cells, pERK; test: as above; assay type: cell-based; settings: Homo sapiens, NCI-H460, 3 hrs, read-out: Inhibition (HTRF IC50 nM) of KRas-mediated Phosphorylation of ERK, H460
How it was run: as §1

[7] = system: H727 cells, pERK; test: as above; assay type: cell-based; settings: Homo sapiens, NCI-H727, 3 h, read-out: Inhibition (HTRF IC50 nM) of KRas-mediated Phosphorylation of ERK, H727
How it was run: as §1

[8] = system: HCT116 cells, pERK; test: as above; assay type: cell-based; settings: Homo sapiens, HCT-116, 3 hrs, read-out: Inhibition (HTRF IC50 nM) of KRas-mediated Phosphorylation of ERK, HCT116
How it was run: as §1

[9] = system: MKN1 cells, pERK; test: as above; assay type: cell-based; settings: Homo sapiens, MKN-1, 3 h, read-out: Inhibition (HTRF IC50 nM) of KRas-mediated Phosphorylation of ERK, MKN1
How it was run: as §1

[10] = system: PSN1 cells, pERK; test: as above; assay type: cell-based; settings: Homo sapiens, PSN1, 3 h, read-out: Inhibition (HTRF IC50 nM) of KRas-mediated Phosphorylation of ERK, PSN1
How it was run: as §1

[11] = system: AsPC-1 (G12D) cells, phospho-ERK; test: Inhibition of KRas-mediated phosphorylation of ERK (phospho-ERK/GAPDH antibody detection, LI-COR); assay type: cell-based; settings: Homo sapiens, ASPC1, 3 hours
Method: (§2) AsPC-1 (G12D, ATCC CRL-1682), A549 (G12S, ATCC CCL-185), HCT116 (G13D, ATCC CCL-247) cells were grown in DMEM medium supplemented with 10% fetal bovine serum and Penicillin/Streptomycin. NCI-H358 (G12C, ATCC CRL-5807), NCI-H460 (Q61H, ATCC HTB-117), NCI-H727 (G12V, ATCC CRL-5815), MKN1 (WTdep, JCRB JCRB0252), PSN-1 (G12R, ATCC CRM-CRL-3211) cells were grown in RPMI medium supplemented with 10% fetal bovine serum, 10 mM HEPES, 10 mM Sodium Pyruvate, and Penicillin/Streptomycin. Cells were plated in black well clear bottom tissue culture treated 96 well plates (Corning, 3904) at a density of 20,000 cells/well and allowed to attach for 12-14 hours. Diluted compounds were then added in a final concentration of 0.5% DMSO. After 3 hours, 50 μL of 4.0% formaldehyde was added and the plates incubated at room temperature for 20 minutes. The plates were then dumped and permeabilized with 150 μL of ice cold 100% methanol for 10 minutes. Non-specific antibody binding to the plates was blocked using 100 μL Odyssey blocking buffer (LI-COR Biosciences, 927-60010) for 1 hour at room temperature.
(§3) The amount of phospho-ERK was determined using an antibody specific for the phosphorylated form of ERK and compared to the amount of GAPDH. Primary antibodies used for the detection were added as follows: Phospho-ERK (Cell Signaling CS-9101) diluted 1:500 and GAPDH (Millipore MAB374) diluted 1:5000 in Odyssey blocking buffer+0.05% Tween 20. The plates were incubated overnight at 4 C. The plates were washed 3× with 150 uL PBS+0.1% Tween 20.
(§4) Secondary antibodies used to visualize primary antibodies were added as follows: Goat Anti-Rabbit-800 (LI-COR, 926-32211) and Goat Anti-Mouse-680 (LI-COR, 926-68070) diluted 1:800 both in Odyssey blocking buffer+0.05% Tween 20 and were incubated for 1 hour at room temperature. The plates were washed 3× with 150 uL PBS+[…]. Plates were imaged dry on a Li—COR Odyssey CLX plate reader.
(§5) The phospho-ERK (Thr202/Tyr204) signal was normalized to the GAPDH signal for each well and percent of DMSO control values were calculated. IC50 values were generated using a 4-parameter fit of the dose response curve.

[12] = system: NCI-H460 (Q61H) cells, phospho-ERK; test: as above; assay type: cell-based; settings: Homo sapiens, 3 hours
Method: as §2, §3, §4, §5

[13] = system: NCI-H727 (G12V) cells, phospho-ERK; test: as above; assay type: cell-based; settings: Homo sapiens, 3 hours
Method: as §2, §3, §4, §5

T1 sequence (P01116 1-169 isoform P01116-2 G12D): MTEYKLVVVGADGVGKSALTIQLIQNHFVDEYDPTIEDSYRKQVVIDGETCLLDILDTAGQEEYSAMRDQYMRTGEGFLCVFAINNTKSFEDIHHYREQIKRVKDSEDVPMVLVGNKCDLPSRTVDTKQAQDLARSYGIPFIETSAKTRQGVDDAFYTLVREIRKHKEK
T3 sequence (P01116 1-169 isoform P01116-2 G12V): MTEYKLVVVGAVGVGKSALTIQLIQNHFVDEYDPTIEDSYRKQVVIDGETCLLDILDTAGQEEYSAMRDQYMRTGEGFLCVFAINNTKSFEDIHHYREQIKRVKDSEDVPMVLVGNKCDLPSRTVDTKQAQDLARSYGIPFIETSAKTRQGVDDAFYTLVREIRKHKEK
T2 sequence (P01116 1-169 isoform P01116-2 G12R): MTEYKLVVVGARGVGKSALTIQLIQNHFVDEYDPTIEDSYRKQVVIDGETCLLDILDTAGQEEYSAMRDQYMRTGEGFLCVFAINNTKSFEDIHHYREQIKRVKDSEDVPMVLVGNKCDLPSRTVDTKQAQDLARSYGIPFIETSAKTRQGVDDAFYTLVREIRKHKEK

IC50 [1] | IC50 [2] | IC50 [3] | IC50 [4] | IC50 [5] | IC50 [6] | IC50 [7] | IC50 [8] | IC50 [9] | IC50 [10] | Compound | IC50 [11] | IC50 [12] | IC50 [13]
≤ 2 nM | 3 nM | 52 nM | 524 nM | 132 nM | 1100 nM | 283 nM | 1700 nM | 181 nM | ≥ 10000 nM | CCc1c(F)ccc2cc(O)cc(N3CCc4c(nc(OCC5(CN(C)C)CC5)nc4N4CCCn5nc(C(=O)N(C)C)cc5C4)C3)c12 [Example 203, 5-(2-((1-((dimethylamino)methyl)cyclopropyl)methoxy)-7-(8-ethyl-7-fluoro-3-hydroxynaphthalen-1-yl)-5,6,7,8-tetrahydropyrido[3,4-d]pyrimidin-4-yl)-N,N-dimethyl-5,6,7,8-tetrahydro-4H-pyrazolo[1,5-a][1,4]diazepine-2-carboxamide] | – | – | –
≤ 2 nM | ≤ 2 nM | ≤ 2 nM | 705 nM | 220 nM | 1400 nM | 260 nM | 1980 nM | 317 nM | 2140 nM | CN(C)C(=O)c1cc2n(n1)CCCN(c1nc(OC[C@@]34CCCN3C[C@H](F)C4)nc3c1CCN(c1cc(O)cc4ccc(F)c(Cl)c14)C3)C2 [Example 229, 5-(7-(8-chloro-7-fluoro-3-hydroxynaphthalen-1-yl)-2-(((2R,7aS)-2-fluorohexahydro-1H-pyrrolizin-7a-yl)methoxy)-5,6,7,8-tetrahydropyrido[3,4-d]pyrimidin-4-yl)-N,N-dimethyl-5,6,7,8-tetrahydro-4H-pyrazolo[1,5-a][1,4]diazepine-2-carboxamide] | – | – | –
≤ 2 nM | 5 nM | ≤ 2 nM | 671 nM | 185 nM | 1240 nM | 344 nM | 1950 nM | 185 nM | ≥ 10000 nM | CCc1c(F)ccc2cc(O)cc(N3CCc4c(nc(OC[C@@H]5CCCN5C)nc4N4CCCn5nc(C(=O)N(C)C)cc5C4)C3)c12 [Example 198, 5-[7-(8-ethyl-7-fluoro-3-hydroxy-1-naphthyl)-2-[[(2S)-1-methylpyrrolidin-2-yl]methoxy]-6,8-dihydro-5H-pyrido[3,4-d]pyrimidin-4-yl]-N,N-dimethyl-4,6,7,8-tetrahydropyrazolo[1,5-a][1,4]diazepine-2-carboxamide] | – | – | –
≤ 2 nM | ≤ 2 nM | ≤ 2 nM | 160 nM | 234 nM | 132 nM | 390 nM | 227 nM | 21 nM | 269 nM | O=C1NC(=O)C2(CCCN(c3nc(OC[C@@]45CCCN4C[C@H](F)C5)nc4c3CCN(c3cc(O)cc5ccc(F)c(Br)c35)C4)C2)N1 (stereo partly drawn) [Example 217, 7-(7-(8-bromo-7-fluoro-3-hydroxynaphthalen-1-yl)-2-(((2R,7aS)-2-fluorohexahydro-1H-pyrrolizin-7a-yl)methoxy)-5,6,7,8-tetrahydropyrido[3,4-d]pyrimidin-4-yl)-1,3,7-triazaspiro[4.5]decane-2,4-dione] | – | – | –
≤ 2 nM | ≤ 2 nM | 52 nM | 59 nM | 122 nM | 68 nM | 194 nM | 164 nM | 41 nM | 578 nM | O=C1NC(=O)C2(CCCN(c3nc(OC[C@@]45CCCN4C[C@H](F)C5)nc4c3CCN(c3cc(O)cc5ccc(F)c(Cl)c35)C4)C2)N1 (stereo partly drawn) [Example 69, 7-(7-(8-chloro-7-fluoro-3-hydroxynaphthalen-1-yl)-2-(((2R,7aS)-2-fluorohexahydro-1H-pyrrolizin-7a-yl)methoxy)-5,6,7,8-tetrahydropyrido[3,4-d]pyrimidin-4-yl)-1,3,7-triazaspiro[4.5]decane-2,4-dione] | – | – | –
≤ 2 nM | ≤ 2 nM | ≤ 2 nM | 98 nM | 125 nM | 331 nM | 114 nM | 709 nM | 34 nM | 2770 nM | O=C1NC(=O)C2CN(c3nc(OC[C@@]45CCCN4C[C@H](F)C5)nc4c3CCN(c3cc(O)cc5ccc(F)c(Cl)c35)C4)CC12 (stereo partly drawn) [Example 232, 5-(7-(8-chloro-7-fluoro-3-hydroxynaphthalen-1-yl)-2-(((2R,7aS)-2-fluorohexahydro-1H-pyrrolizin-7a-yl)methoxy)-5,6,7,8-tetrahydropyrido[3,4-d]pyrimidin-4-yl)tetrahydropyrrolo[3,4-c]pyrrole-1,3(2H,3aH)-dione] | – | – | –
≤ 2 nM | ≤ 2 nM | ≤ 2 nM | 146 nM | 108 nM | 253 nM | 197 nM | 405 nM | 24 nM | 696 nM | O=C1NCC2(CCCN(c3nc(OC[C@@]45CCCN4C[C@H](F)C5)nc4c3CCN(c3cc(O)cc5ccc(F)c(Cl)c35)C4)C2)N1 (stereo partly drawn) [Example 228, 7-(7-(8-chloro-7-fluoro-3-hydroxynaphthalen-1-yl)-2-(((2R,7aS)-2-fluorohexahydro-1H-pyrrolizin-7a-yl)methoxy)-5,6,7,8-tetrahydropyrido[3,4-d]pyrimidin-4-yl)-1,3,7-triazaspiro[4.5]decan-2-one] | – | – | –

Compound | IC50 [1] | IC50 [2] | IC50 [3] | IC50 [4] | IC50 [5] | IC50 [6] | IC50 [7] | IC50 [8] | IC50 [9] | IC50 [10] | IC50 [11] | IC50 [12] | IC50 [13]
CCc1c(F)ccc2cc(O)cc(N3CCc4c(nc(OC[C@@]56CCCN5C[C@H](F)C6)nc4N4CC5C(=O)NC(=O)C5C4)C3)c12 (stereo partly drawn) [Example 24, 5-(7-(8-ethyl-7-fluoro-3-hydroxynaphthalen-1-yl)-2-(((2R,7aS)-2-fluorohexahydro-1H-pyrrolizin-7a-yl)methoxy)-5,6,7,8-tetrahydropyrido[3,4-d]pyrimidin-4-yl)tetrahydropyrrolo[3,4-c]pyrrole-1,3(2H,3aH)-dione] | ≤ 2 nM | ≤ 2 nM | ≤ 2 nM | 17 nM | 10 nM | 59 nM | 35 nM | 148 nM | 6 nM | 2950 nM | 25 nM | 65 nM | 134 nM
